Measured values as given in patent publication US20260008818A1, “CYCLIC PEPTIDE OR SALT THEREOF, AND USES THEREOF” (FUJIFILM Corporation, priority 2023, published 2026).
Bridge positions count the residues as written; N and C are the ends. Ends that are not written are not given here. COCH2 = acetyl group that carries the bridge

System: Recombinant Human FGFR1 alpha (IIIc) Fc Chimera Protein
Test: Binding affinity of enzymatically synthesized cyclic peptide to FGFR by ELISA
Conditions: luminescence signal at reaction concentration 10 nmol/L, SEQ ID NO: 39 standardized to 1, enzyme synthesis product
Method: The binding affinity of the cyclic peptide to FGFR was evaluated using an ELISA method.
The binding affinity of the enzymatically synthesized cyclic peptide to FGFR was measured by evaluating the amount of the cyclic peptide bound to FGFR by ELISA.
First, 5 ng of Recombinant Human FGFR1 alpha (IIIc) Fc Chimera Protein CF (R&D systems, 658-FR-050) was immobilized in each well of a 96-well plate, and blocked with Pierce Protein-Free (PBS) Blocking Buffer (Thermo, 37572), and a cyclic peptide diluted with Can Get Signal Immunoreaction Enhancer Solution I (TOYOBO, NKB-101) was then added and reacted at room temperature for 3 hours. After washing with 0.05% Tween 20-containing phosphate buffered saline (PBS), an anti-Myc antibody (Cell Signaling, 14038S) diluted with Can Get Signal Immunoreaction Enhancer Solution II (TOYOBO, NKB-101) was added and reacted at room temperature for 2 hours. After washing with 0.05% Tween 20-containing PBS, SuperSignal ELISA Femto Substrate (Thermo, 37075) was added, and the luminescence amount was measured. The dose-response relationship was calculated from using the difference between the luminescence amount in the well in which FGFR was immobilized and the luminescence amount in the well in which FGFR was not immobilized, and the concentration of the cyclic peptide at the time of reaction, and the binding affinity to FGFR was evaluated according to the following evaluation criteria. The evaluation result preferably satisfies the evaluation criteria A, B, or C.
In a case where a value of a luminescence signal emitted by the cyclic peptide set forth in SEQ ID NO: 39 at a reaction concentration of 10 nmol/L is standardized to 1, evaluation criteria of the luminescence signal value emitted by the cyclic peptide at a reaction concentration of 10 nmol/L is as follows. • A: 0.7 or more • B: 0.5 or more and less than 0.7 • C: 0.1 or more and less than 0.5 • D: less than 0.1.

Evaluation result of binding affinity to FGFR | Substance
A (0.7 or more) | 329 (HCSYERLRFHGHIAPFWVK(COCH2)V; thioether 2-19 (inferred)) [compound 329]
A (0.7 or more) | 323 (HCTWERLIFLGHIAPFHVK(COCH2)R; thioether 2-19 (inferred)) [compound 323]
C (0.1 or more and less than 0.5) | 341 (ACLPFLRIIIAGHWAPFLAK(COCH2)H; thioether 2-20) [compound 341]
C (0.1 or more and less than 0.5) | 322 (HCTWERLIFLGHIAPFLVK(COCH2)R; thioether 2-19 (inferred)) [compound 322]
C (0.1 or more and less than 0.5) | 343 (QCWQQAYAYFPHVLAPFLVK(COCH2)S; thioether 2-20) [compound 343]
B (0.5 or more and less than 0.7) | 256 (NCWGYHYTIPFIK(COCH2)F; thioether 2-13 (inferred)) [compound 256]
C (0.1 or more and less than 0.5) | 357 (ACWLRHIYQGHQAPFLIWSTK(COCH2)Y; thioether 2-21) [compound 357]
C (0.1 or more and less than 0.5) | 316 (HCTWERLVFLGHIAPFWVK(COCH2)R; thioether 2-19 (inferred)) [compound 316]
C (0.1 or more and less than 0.5) | 362 (WCHYAPFWVLNEGQLK(COCH2)V; thioether 2-16) [compound 362]
C (0.1 or more and less than 0.5) | 289 (HCSYERLQFHKHEAPFRVK(COCH2)V; thioether 2-19 (inferred)) [compound 289]
A (0.7 or more) | 332 (HCTYERLIFHGHIAPFWVK(COCH2)V; thioether 2-19 (inferred)) [compound 332]
A (0.7 or more) | 286 (HCSYEKLQFHGHEAPFRVK(COCH2)V; thioether 2-19 (inferred)) [compound 286]
C (0.1 or more and less than 0.5) | 268 (VCRLSFWGHAAPFLSVK(COCH2)T; thioether 2-17 (inferred)) [compound 268]
A (0.7 or more) | 333 (HCVYERLIFHGHIAPFWVK(COCH2)V; thioether 2-19 (inferred)) [compound 333]
C (0.1 or more and less than 0.5) | 337 (ACLPFLRIIIAGHWAPFLAK(COCH2)Q; thioether 2-20 (inferred)) [compound 337]
B (0.5 or more and less than 0.7) | 336 (HCTYERLIFLGHIAPFWVK(COCH2)V; thioether 2-19 (inferred)) [compound 336]
C (0.1 or more and less than 0.5) | 255 (RCWRQIRYGQLLAPFLVK(COCH2)Q; thioether 2-18 (inferred)) [compound 255]
C (0.1 or more and less than 0.5) | 311 (RCTWERLIFLGHIAPFWVK(COCH2)R; thioether 2-19 (inferred)) [compound 311]
A (0.7 or more) | 335 (HCSYERLIFRGHIAPFWVK(COCH2)V; thioether 2-19 (inferred)) [compound 335]
A (0.7 or more) | 373 (CERLIFHGHEAPFWVK(COCH2); thioether 1-16) [compound 373]
C (0.1 or more and less than 0.5) | 266 (PCSWVQLQYQGFTAPFLVK(COCH2)Y; thioether 2-19 (inferred)) [compound 266]
B (0.5 or more and less than 0.7) | 324 (HCTWERLIFLGHIAPFWVK(COCH2)V; thioether 2-19 (inferred)) [compound 324]

The next lines start with the substance.

Substance | Evaluation result of binding affinity to FGFR
178 (HCSYERLQFHGHLAPFRVK(COCH2)V; thioether 2-19 (inferred)) [compound 178] | A (0.7 or more)
246 (PCTYRQVVVHGWYAPFISK(COCH2)V; thioether 2-19 (inferred)) [compound 246] | C (0.1 or more and less than 0.5)
133 (HCSYRRLQFHGHEAPFRVK(COCH2)V; thioether 2-19 (inferred)) [compound 133] | B (0.5 or more and less than 0.7)
62 (HCSYERLQFHGHAAPFRVK(COCH2)V; thioether 2-19 (inferred)) [compound 62] | A (0.7 or more)
53 (SCWYQPEWLGHHLPYLVK(COCH2)W; thioether 2-18 (inferred)) [compound 53] | C (0.1 or more and less than 0.5)
148 (HCSYERLVFHGHEAPFRVK(COCH2)V; thioether 2-19 (inferred)) [compound 148] | A (0.7 or more)
224 (HK(COCH2)SYERLQFHGHEAPFRVCV; thioether 2-19 (inferred)) [compound 224] | B (0.5 or more and less than 0.7)
75 (NCSYERLQFHGHEAPFRVK(COCH2)V; thioether 2-19 (inferred)) [compound 75] | A (0.7 or more)
136 (HCSYELLQFHGHEAPFRVK(COCH2)V; thioether 2-19 (inferred)) [compound 136] | C (0.1 or more and less than 0.5)
135 (HCSYEPLQFHGHEAPFRVK(COCH2)V; thioether 2-19 (inferred)) [compound 135] | C (0.1 or more and less than 0.5)
250 (QCLWAQLQLLTHLAPYIVK(COCH2)I; thioether 2-19 (inferred)) [compound 250] | C (0.1 or more and less than 0.5)
177 (HCSYERLQFHGHPAPFRVK(COCH2)V; thioether 2-19 (inferred)) [compound 177] | A (0.7 or more)
201 (HCSYERLQFHGHEAPFHVK(COCH2)V; thioether 2-19 via Ac; not fully specified) [compound 201] | A (0.7 or more)
219 (HCSYERLQFHGHEAPFRVK(COCH2)T; thioether 2-19 via Ac; not fully specified) [compound 219] | A (0.7 or more)
79 (DCSYERLQFHGHEAPFRVKV; not fully specified; Description of Artificial Sequence: Cyclic peptide) [compound 79] | A (0.7 or more)
203 (HCSYERLQFHGHEAPFRIK(COCH2)V; thioether 2-19 via Ac; not fully specified) [compound 203] | A (0.7 or more)
129 (HCSYQRLQFHGHEAPFRVK(COCH2)V; thioether 2-19 (inferred)) [compound 129] | A (0.7 or more)
125 (HCSYFRLQFHGHEAPFRVK(COCH2)V; thioether 2-19 (inferred)) [compound 125] | C (0.1 or more and less than 0.5)
48 (HCKVQQLWLQGHYAPYWVK(COCH2)S; thioether 2-19 (inferred)) [compound 48] | C (0.1 or more and less than 0.5)
154 (HCSYERLTFHGHEAPFRVK(COCH2)V; thioether 2-19 (inferred)) [compound 154] | A (0.7 or more)
170 (HCSYERLQFNGHEAPFRVK(COCH2)V; thioether 2-19 (inferred)) [compound 170] | B (0.5 or more and less than 0.7)
231 (HK(COCH2)TFERLIFLGHIAPFWVCR; thioether 2-19 (inferred)) [compound 231] | B (0.5 or more and less than 0.7)
227 (YK(COCH2)TWERLIFLGHIAPFWVCR; thioether 2-19 (inferred)) [compound 227] | C (0.1 or more and less than 0.5)
247 (ACKYVPHIFQQHQAPYLVK(COCH2)S; thioether 2-19 (inferred)) [compound 247] | B (0.5 or more and less than 0.7)
56 (ACSYERLQFHGHEAPFRVK(COCH2)V; thioether 2-19 (inferred)) [compound 56] | A (0.7 or more)
156 (HCSYERLRFHGHEAPFRVK(COCH2)V; thioether 2-19 (inferred)) [compound 156] | A (0.7 or more)
127 (HCSYWRLQFHGHEAPFRVK(COCH2)V; thioether 2-19 (inferred)) [compound 127] | A (0.7 or more)
237 (HK(COCH2)TWERLIFLGHLAPFWVCR; thioether 2-19 (inferred)) [compound 237] | B (0.5 or more and less than 0.7)
